According to US20090156638A1, “Uses of nordihydroguaiaretic acid (NDGA) and derivatives thereof in preventing transmission of sexually transmitted diseases” (priority 2007, published 2009):
Where two headings read alike, the source gives them in different places.

Tests used:
[1] = system: HSV-1; test: Mutation-insensitivity: IC50 against HSV-1 over ten virus passages; assay type: cell-based
From the text: In contrast, host factors, unlike viral factors, are under no selective pressure to mutate and are in general structurally invariable. […] Table 1 compares the IC50 of M4N and acyclovir for ten passages.

[2] = system: Sp1 enhancer sequence; conditions: ethidium displacement; G4N concentration causing 50% reduction of DNA-ethidium fluorescence
From the text: (§1) The […] (IE) ICP4 gene of HSV is essential for HSV replication.

[3] = system: HSV-1; conditions: for efficacy against HSV-1 cutaneous infection: day 6
Protocol: The dorsal cutaneous guinea pig model system is a well-established model for HSV-1 infection.
In FIGS. 6A-6D, for topical treatment with M4N sections of shaved and depilated dorsal guinea pig skin were infected equally were infected with HSV-1.
McKrae strain). […] Treatments were administered twice daily and photogragphs were taken at day 6 post-infection. […] Regions 1 and 4 were infected with high levels of HSV-1 (1×10^8 pfu/mL), regions 2 and 5 were infected with moderate levels of HSV-1 (1×10^6 pfu/mL) and regions 3 and 6 were infected with low levels of HSV-1 (1×10^4 pfu/mL).

[4] = system: HSV-2; test: Mouse vaginal model of HSV-2 infection; assay type: in vivo, CF-1 mice; conditions: for animals infected: 10 mice per group
Protocol: The efficacies of […] (FIG. 8A) and […] (FIG. 8A) against HSV-2 in a mouse vaginal model system have also been examined. […] At the end of three days, the vaginal lavages were collected from the washings of the vagina regions. The status of the vaginal HSV-2 infection and replication were examined by their cytopathic effects on cultured human foreskin fibroblast cells. Monitoring and scoring were carried out by three persons independently.

[5] = system: HSV-1; conditions: read-out: Inhibitory Concentration (IC50 or EC50)
[6] = system: acyclovir-resistant strains of HSV-1 (HSV-1^R); conditions: read-out: Inhibitory Concentration (IC50 or EC50)
[7] = system: HIV-1RTMF; conditions: read-out: Inhibitory Concentration (IC50 or EC50), H9 cells
[8] = system: HIV-1; conditions: read-out: Inhibitory Concentration (IC50 or EC50), Cos cells
[9] = system: SIVmac239; conditions: read-out: Inhibitory Concentration (IC50 or EC50), 174 × CEM cells
[10] = system: HSV-1^R; conditions: 40 μM; explanted mouse trigeminal ganglia
[11] = system: HSV-1; conditions: topical application for six days in guinea pigs, up to 50 mM; reference (34); cited from earlier work
[12] = system: Sp1 transcription factor binding to the major groove of Sp1 site; conditions: by competition for binding or altering DNA conformation
From the text: as §1

`Nc1nc2c(ncn2COCCO)c(=O)[nH]1` [Acyclovir, acyclovir, reference compound] showed an IC50 ([1]; Human alphaherpesvirus 1, HSV-1 passage 1) of 7.54 µM, an IC50 ([1]; Human alphaherpesvirus 1, HSV-1 passage 2) of 37.8 µM and an IC50 ([1]; Human alphaherpesvirus 1, HSV-1 passage 3) of 88.8 µM. For the same compound, the IC50 ([1]; Human alphaherpesvirus 1, HSV-1 passage 4) was 138 µM, the IC50 ([1]; Human alphaherpesvirus 1, HSV-1 passage 5) was 111 µM and the IC50 ([1]; Human alphaherpesvirus 1, HSV-1 passage 6) was 131 µM. It also gave an IC50 ([1]; Human alphaherpesvirus 1, HSV-1 passage 7) of 190 µM, an IC50 ([1]; Human alphaherpesvirus 1, HSV-1 passage 8) of 444 µM and an IC50 ([1]; Human alphaherpesvirus 1, HSV-1 passage 9) of 379 µM. The IC50 ([1]; Human alphaherpesvirus 1, HSV-1 passage 10) was 444 µM.
With `C[C@H](Cc1ccc(OC(=O)CN(C)C)c(OC(=O)CN(C)C)c1)[C@@H](C)Cc1ccc(OC(=O)CN(C)C)c(OC(=O)CN(C)C)c1` [G4N, tetra-O—(N,N-dimethyl)glycyl-nordihydroguaiaretic acid] the “apparent equilibrium binding constant (Kapp)” value [2] was 3e+06 M⁻¹, the “efficacy against HSV-1 cutaneous infection” value ([3]; 5 mM topically twice daily, 1×10^8 pfu/mL McKrae) was “semi-effective” and the “efficacy against HSV-1 cutaneous infection” value ([3]; 10 mM topically twice daily, 1×10^8 pfu/mL McKrae) was “more effective”. The “efficacy against HSV-1 cutaneous infection” value ([3]; 150 mM topically twice a day, 1×10^4 to 1×10^8 pfu/mL) was “extremely effective”, the “inhibition of HSV-1 induced cutaneous lesion formation and viral shedding” value ([3]; topical application, guinea pig) was “effectively inhibited HSV-1 induced cutaneous lesion formation and viral shedding” and the average infection score ([4]; 0.1 mM) was 0.5. For the same compound, the infection ([4]; 0.1 mM) was about 12.5%, the animals infected ([4]; 0.1 mM, vaginal lavage at three days) was 1 out of 10 and the animals infected ([4]; 10 mM) was “no infections detected”. For the same compound, the animals infected ([4]; 100 mM) was “no infections detected”, the IC50 ([5]; HSV-1 McKrae (Vero from row above)) was 4.5 µM and the IC50 ([5]; Vero cells, HSV-1 KOS) was 3.6 µM. For the same compound, the IC50 ([6]; HSV-1^R F59878) was 2.1 µM, the IC50 ([6]; HSV-1^R T28387) was 4.3 µM and the IC50 [7] was 12 µM. The IC50 [8] was 36 µM, the IC50 [9] was 5 µM and the “decrease in HSV reactivation” value [10] was 40 μM had 67%. For the same compound, the toxicity [11] was “no evidence of toxicity”.
`COc1cc(CC(C)C(C)Cc2ccc(O)c(O)c2)ccc1O` (stereo not shown) [Mal.4, 3′-O-methyl nordihydroguaiaretic acid] gave an IC50 [8] of 25 µM.
With `CC(Cc1ccc(OCCN2CCCCC2)c(OCCN2CCCCC2)c1)C(C)Cc1ccc(OCCN2CCCCC2)c(OCCN2CCCCC2)c1` (stereo not shown) [P4N, tetra-O—(N-ethylpiperidinyl)-nordihydroguaiaretic acid] the “disruption of Sp1 transcription factor binding” value [12] was “disrupt Sp1 transcription factor binding”, the “average scale of infection” value ([4]; 10 mM) was 0.19 and the animals infected ([4]; 10 mM) was 2 of 10. For the same compound, the “efficacy against vaginal HSV-2 infection” value ([4]; in PBS) was “quite effective”.
